Experimental data taken from patent publication US9629823B2, “Composition for promoting collagen production, for promoting elastin production and/or for promoting keratinocyte migration and usage therefor” (PUBLIC UNIVERSITY CORPORATION OSAKA CITY UNIVERSITY, priority 2013, dated 2017).

Experiments:
[1] = tested on: elastin in CCD-10595K cells; test: Elastin production by western blot analysis in fibroblasts; type: cell-based, human; details: sesaminol 15 or 30 μg/ml, 24 hours
Method: (§1) Cells of human normal skin-derived fibroblast CCD-10595K cells (purchased from DS Pharma Biomedical Co., Ltd.) were inoculated in a plastic dish having a diameter of 35 mm and cultured until they reached confluence in a 5% CO2 incubator at 37° C. Thereafter, the medium was replaced with the medium containing the sesaminol solution so as to contain sesaminol at a final concentration of 15 or 30 μg/ml and the cells were incubated for 24 hours in a 5% CO2 incubator at 37° C. The medium used was the same medium as in Example 1. The medium was replaced every two days until the cells reached confluence. As a control, incubation was carried out using the medium without sesaminol solution.
(§2) After the incubation, cells were washed twice with PBS and collected into a 1.5-ml tube using a cell scraper. […] An aliquot of the collected supernatant was subjected to protein quantification using Serva Blue G (Serva Electrophoresis GmbH) based on the absorbance at 595 nm in order to calculate the amount of sample applied to electrophoresis.
(§3) Equal volumes of the supernatant containing cell lysate and a sample buffer were mixed and heated at 90° C. for 5 minutes to prepare a sample for electrophoresis. […] The ratio of the band intensity of type I collagen or elastin relative to the band intensity of β-actin was calculated for the samples.

[2] = tested on: type I collagen in CCD-10595K cells; test: Collagen production by western blot analysis in fibroblasts; type: cell-based, human; details: sesaminol 15 or 30 μg/ml, 24 hours
Method: as §1, §2, §3

[3] = tested on: various cell lines used in Examples; test: Toxicity and viability check on the cell lines used in Examples; type: cell-based; details: sesaminol solution (3.0 mg/ml in DMSO)
Method: The highly concentrated sesaminol solution was dissolved in dimethyl sulphoxide (DMSO) to prepare a sesaminol solution (3.0 mg/ml) to be used in Examples.

[4] = tested on: human normal skin-derived keratinocyte HaCaT cells; test: Scratch (wound healing) assay of keratinocyte migration; type: cell-based; details: 24 hours, control = 100
Method: Cells of human normal skin-derived keratinocyte HaCaT cells were inoculated at a density of 5.0×10^5 cells/dish in a plastic dish having a diameter of 35 mm with a mark on the bottom and cultured until they reached confluence in a 5% CO2 incubator at 37° C. The culture medium used was Dulbecco's modified Eagle's medium (DMEM: Nissui Pharmaceutical Co., Ltd.) containing 10% fetal bovine serum (FBS: Nichirei Biosciences, Inc.), penicillin (50 units/ml, Meiji Co., Ltd.) and streptomycin ([…], Meiji Co., Ltd.). The medium was replaced every two days.
After culturing the cells until they reached confluence, cells in the dish were scraped with a chip and a linear wound pattern was formed therewith. Immediately thereafter, the wound pattern was analysed under an inverted microscope (OLYMPUS IX-70: Olympus Corporation) and photographed. […] The wound pattern was then analysed with OLYMPUS IX-70 and photographed. […]
Based on the obtained photographic images, the width of wound patterns in the samples was measured. […] Based on the measurement results, the repair rate in the region of the wound by sesaminol was calculated. The repair rates for the samples calculated are as follows with the rate for the control being 100.

[5] = tested on: type I collagen in CCD-10595K cells; test: Collagen production by immunohistochemistry (anti-type I collagen) in fibroblasts; type: cell-based, human; details: sesaminol 15 or 30 μg/ml, 24 hours
Method: Cells of human normal skin-derived fibroblast CCD-10595K strain (purchased from DS Pharma Biomedical Co., Ltd.) were inoculated at a density of 3.0×10^4 cells/ml in a plastic dish having a diameter of 35 mm and cultured in a 5% CO2 incubator at 37° C. The medium used was the same medium as in Example 1. After 1 or 2 days, the medium was replaced with the medium containing the sesaminol solution so as to contain sesaminol at a final concentration of 15 or 30 μg/ml and the cells were incubated for 24 hours in a 5% CO2 incubator at 37° C. As a control, incubation was carried out using the medium without sesaminol solution.
After the incubation, cells were washed three times with PBS. Cells were then fixed in 4% paraformaldehyde and stored overnight at 4° C. The fixed cells were treated with 0.1% Triton®-X100 diluted in PBS for 5 minutes and washed with PBS for 5 minutes. The treated cells were blocked in 3% H2O2 and washed with PBS for 5 minutes. The cells were further blocked in 10% normal goat serum and washed with PBS for 5 minutes. A rabbit anti-type I collagen antibody (LSL) diluted 200-fold in PBS was added to the cells on a slide glass which were then incubated for 1 hour and washed with PBS for 5 minutes. […] The prepared slide was analysed on OLYMPUS IX-70 and images of stained cells were obtained.

## Oc1cc2c(cc1C1OCC3C(c4ccc5c(c4)OCO5)OCC13)OCO2 (stereo not shown) [sesaminol]
[1]
  expression level of elastin (band intensity ratio to β-actin, control = 1; FIG. 4): increased
[2]
  expression level of collagen (band intensity ratio to β-actin, control = 1; FIG. 3): increased
[3]
  effect on cell viability: did not affect viability
  toxicity to cell lines: not toxic
[4]; sesaminol 15 μg/ml
  repair rate in the region of the wound (control being 100): 121.7±25.6
[4]; sesaminol 30 μg/ml
  repair rate in the region of the wound (control being 100): 139.1±20.6
[5]
  type I collagen staining intensity vs control (FIG. 2): stained more intensely than the control
